Assay results from patent US20250161404A1, “METHODS AND COMPOSITIONS FOR THE CONTROL OF INFLAMMATION IN SKIN DISEASE” (VANDERBILT UNIVERSITY, priority 2023, published 2025).
In brackets after ≈: the same amount, converted by molar mass. Where a SMILES comes first, the peptide text is derived from it. Bridges are numbered along the chain shown (N, C = ends).

What was measured:
Imp beta = Imp beta (Homo sapiens, UniProt Q14974); experiment: Cell culture and preclinical studies (Table 3 comment)
Importin beta = Importin beta (Homo sapiens, UniProt Q14974); experiment: Binding studies (Table 3 comment)
[1] = Solubility of the peptide; type: physicochemical; conditions: cSN50: depending on the method of synthesis and purification; read-out: soluble at levels of
Method: cSN50.1 is a cyclized peptide having the sequence of cSN50 with the exception that the tyrosine at position 18 of cSN50, adjacent to the first cysteine, has been removed. Methods of making and using cSN50 are described, for example, in U.S. Pat. Nos. 7,553,929 and 6,495,518. The amino acid sequence of cSN50.1 is […] (SEQ ID NO: 2). The tyrosine at position 18 was removed from the sequence of cSN50 to increase solubility. cSN50 is soluble at levels of ranging from 2.0 mg/mL to 40 mg/mL depending on the method of synthesis and purification whereas cSN50.1 is soluble at levels of at least 100 mg/ml. Any mimetics, derivatives, or homologs of cSN50.1 may be used in the compositions, methods, and kits disclosed herein. cSN50.1 is also encompassed by SEQ ID NO: 3, SEQ ID NO: 4 and SEQ ID NO: 5. Additional examples of NTMs include fragment-designed and synthesized peptides in which cargo is incorporated as two, rather than one, modules or cargos derived from intracellular proteins other than NFκB 1. Such additional examples include the sequences of SEQ ID NO: 6, SEQ ID NO: 7, SEQ ID NO: 8, and SEQ ID NO: 9.

[2] = long-term NTCI treatment; cited from earlier work
[3] = Cell viability of cultured human keratinocytes; type: cell-based; conditions: in all conditions, 48 hours after TNF-α/IL-17 challenge

Imp beta, sequence (Q14974 whole entry): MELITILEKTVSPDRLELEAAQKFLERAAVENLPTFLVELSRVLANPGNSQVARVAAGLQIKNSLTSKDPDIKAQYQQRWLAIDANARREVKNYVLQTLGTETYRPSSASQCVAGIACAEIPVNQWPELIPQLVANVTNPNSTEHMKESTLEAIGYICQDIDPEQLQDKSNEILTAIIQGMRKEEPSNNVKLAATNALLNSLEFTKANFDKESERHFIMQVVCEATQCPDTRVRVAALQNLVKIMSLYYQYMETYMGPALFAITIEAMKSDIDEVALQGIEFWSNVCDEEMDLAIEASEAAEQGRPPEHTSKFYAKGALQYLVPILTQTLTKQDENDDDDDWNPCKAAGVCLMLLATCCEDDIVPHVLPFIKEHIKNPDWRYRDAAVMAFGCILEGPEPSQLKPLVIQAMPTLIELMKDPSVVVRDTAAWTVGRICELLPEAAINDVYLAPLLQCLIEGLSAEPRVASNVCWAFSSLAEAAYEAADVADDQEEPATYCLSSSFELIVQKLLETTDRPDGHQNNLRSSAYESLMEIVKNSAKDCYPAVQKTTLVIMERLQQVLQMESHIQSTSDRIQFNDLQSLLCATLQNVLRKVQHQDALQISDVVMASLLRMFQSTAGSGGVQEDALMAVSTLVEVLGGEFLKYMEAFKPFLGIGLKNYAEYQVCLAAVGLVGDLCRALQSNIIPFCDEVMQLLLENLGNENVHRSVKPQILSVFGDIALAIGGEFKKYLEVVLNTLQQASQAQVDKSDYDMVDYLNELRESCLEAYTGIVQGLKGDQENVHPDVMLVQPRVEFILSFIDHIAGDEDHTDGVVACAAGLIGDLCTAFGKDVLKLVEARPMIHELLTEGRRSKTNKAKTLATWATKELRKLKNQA
Importin beta, sequence (Q14974 whole entry): as above

Question: Which “Comments: importin selectivity” value (Imp beta) does the source give for AAVALLPAVLLALLAPCVQRDEQKLMPC [cSN50.1β] here?
Answer: Imp beta-selective

Question: For “AAVALLPAVLLALLAPVQRDEQKLMP (Description of sequence: Peptide, name of peptide: SM12)”, which “Comments: importin selectivity” value (Importin beta) is on record?
Answer: Importin beta-

Question: Which solubility [1] does the source give for CSCC[C@@H]1NC(=O)[C@H](CC(C)C)NC(=O)[C@H](CCCCN)NC(=O)[C@H](CCC(N)=O)NC(=O)[C@H](CCCNC(=N)N)NC(=O)[C@H](CCCCN)NC(=O)[C@H](CCCNC(=N)N)NC(=O)[C@H](CCC(N)=O)NC(=O)[C@H](C(C)C)NC(=O)[C@H](Cc2ccc(O)cc2)NC(=O)[C@@H](NC(=O)[C@@H]2CCCN2C(=O)[C@H](C)NC(=O)[C@H](CC(C)C)NC(=O)[C@H](CC(C)C)NC(=O)[C@H](C)NC(=O)[C@H](CC(C)C)NC(=O)[C@H](CC(C)C)NC(=O)[C@@H](NC(=O)[C@H](C)NC(=O)[C@@H]2CCCN2C(=O)[C@H](CC(C)C)NC(=O)[C@H](CC(C)C)NC(=O)[C@H](C)NC(=O)[C@@H](NC(=O)[C@H](C)NC(=O)[C@H](C)N)C(C)C)C(C)C)CSSC[C@@H](C(=O)O)NC(=O)[C@@H]2CCCN2C1=O [cSN50] (H-AAVALLPAVLLALLAPCYVQRKRQKLMPC-OH; disulfide 17-29; N-terminus and C-terminus assumed) here?
Answer: 2 to 40 mg/mL (≈ 0.635 to 12.7 mM)

Question: Which results are given for CSCC[C@@H]1NC(=O)[C@H](CC(C)C)NC(=O)[C@H](CCCCN)NC(=O)[C@H](CCC(N)=O)NC(=O)[C@H](CCCNC(=N)N)NC(=O)[C@H](CCCCN)NC(=O)[C@H](CCCNC(=N)N)NC(=O)[C@H](CCC(N)=O)NC(=O)[C@H](C(C)C)NC(=O)[C@@H](NC(=O)[C@@H]2CCCN2C(=O)[C@H](C)NC(=O)[C@H](CC(C)C)NC(=O)[C@H](CC(C)C)NC(=O)[C@H](C)NC(=O)[C@H](CC(C)C)NC(=O)[C@H](CC(C)C)NC(=O)[C@@H](NC(=O)[C@H](C)NC(=O)[C@@H]2CCCN2C(=O)[C@H](CC(C)C)NC(=O)[C@H](CC(C)C)NC(=O)[C@H](C)NC(=O)[C@@H](NC(=O)[C@H](C)NC(=O)[C@H](C)N)C(C)C)C(C)C)CSSC[C@@H](C(=O)O)NC(=O)[C@@H]2CCCN2C1=O [cSN50.1] (H-AAVALLPAVLLALLAPCVQRKRQKLMPC-OH; disulfide 17-28; N-terminus and C-terminus assumed)?
Answer: apparent toxicity [2]: lack of apparent toxicity; solubility [1]: ≥ 100 mg/mL; viability at 48 h [3]: > 80%
